Calls of active or inactive are those of the source. The rule behind the calls is not given here.
Columns and labels:
[1] = biological target: T1, Taste receptor type 2 member 46 (Homo sapiens) (UniProt P59540); test: Agonist activity at human TAS2R46 expressed in human BEAS2B cells assessed as antiinflammatory activity by measuring reduction in PMA-induced MUC5AC expression at 1 uM incubated for 18 hrs by TRITC-phalloidin/DAPI staining based analysis; format: cell-based
T1 sequence (whole entry): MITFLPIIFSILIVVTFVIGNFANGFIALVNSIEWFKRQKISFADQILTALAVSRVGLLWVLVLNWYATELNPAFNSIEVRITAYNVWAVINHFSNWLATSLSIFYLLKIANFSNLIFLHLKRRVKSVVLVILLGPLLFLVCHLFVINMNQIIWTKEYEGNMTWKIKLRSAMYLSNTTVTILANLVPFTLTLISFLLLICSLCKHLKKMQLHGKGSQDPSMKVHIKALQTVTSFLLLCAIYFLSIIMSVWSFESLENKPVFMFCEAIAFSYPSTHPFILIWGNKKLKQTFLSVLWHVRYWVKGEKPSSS

[2] = biological target: T1, Taste receptor type 2 member 46 (Homo sapiens); test: Agonist activity at human TAS2R46 expressed in human BEAS2B cells assessed as antiinflammatory activity by measuring reduction in PMA-induced iNOS mRNA level at 1 uM incubated for 18 hrs by qRT-PCR analysis; format: cell-based
[3] = biological target: T1, Taste receptor type 2 member 46 (Homo sapiens); test: Agonist activity at human TAS2R46 expressed in PMA-induced human BEAS2B cells assessed as antiinflammatory activity by measuring increase in IL-4 gene expression at 1 uM incubated for 18 hrs by qRT-PCR analysis; format: cell-based
[4] = biological target: T1, Taste receptor type 2 member 46 (Homo sapiens); test: (§1) Agonist activity at human TAS2R46 expressed in human BEAS2B cells assessed as antiinflammatory activity by measuring reduction in PMA-induced superoxide anion generation at 1 uM preincubated for 1 hr followed by PMA addition and measured after 30 mins by cytochrome C reduction assay; format: cell-based
[5] = biological target: T1, Taste receptor type 2 member 46 (Homo sapiens); test: Agonist activity at human TAS2R46 expressed in human BEAS2B cells assessed as antiinflammatory activity by measuring reduction in PMA-induced IL-1beta gene expression at 1 uM incubated for 18 hrs in presence of 1 uM TAS2R46 antagonist 3HDC by qRT-PCR analysis; format: cell-based
[6] = biological target: T1, Taste receptor type 2 member 46 (Homo sapiens); test: Agonist activity at human TAS2R46 expressed in human BEAS2B cells assessed as increase in cytosolic calcium level at 1 mM by Fluo-2-AM dye based fluorescence assay; format: functional, cell-based
[7] = biological target: T1, Taste receptor type 2 member 46 (Homo sapiens); test: Agonist activity at human TAS2R46 expressed in human BEAS2B cells assessed as antiinflammatory activity by measuring reduction in PMA-induced iNOS protein level at 1 uM incubated for 18 hrs by TRITC-phalloidin/DAPI staining based analysis; format: cell-based
[8] = biological target: T1, Taste receptor type 2 member 46 (Homo sapiens); test: Agonist activity at human TAS2R46 expressed in human BEAS2B cells assessed as antiinflammatory activity by measuring reduction in PMA-induced IL-1beta gene expression at 1 uM incubated for 18 hrs by qRT-PCR analysis; format: cell-based
BEAS-2B [9] = test: Effect on basal superoxide anion production in human BEAS2B cells expressing human TAS2R46 at 1 uM after 1 hr by cytochrome C reduction assay; format: ADME, cell-based
[10] = biological target: T1, Taste receptor type 2 member 46 (Homo sapiens); test: Agonist activity at human TAS2R46 expressed in human BEAS2B cells assessed as increase in cytosolic calcium level at 1 mM in presence of 100 uM TAS2R46 antagonist 3HDC by Fluo-2-AM dye based fluorescence assay; format: functional, cell-based
[11] = biological target: T1, Taste receptor type 2 member 46 (Homo sapiens); test: as §1, with “antioxidant” for “antiinflammatory”, “mins in presence of 1 uM TAS2R46 antagonist 3HDC” for “mins”; format: cell-based
[12] = biological target: T1, Taste receptor type 2 member 46 (Homo sapiens); test: Agonist activity at human TAS2R46 expressed in PMA-induced human BEAS2B cells assessed as antiinflammatory activity by measuring increase in IL-10 gene expression at 1 uM incubated for 18 hrs by qRT-PCR analysis; format: cell-based
[13] = biological target: T1, Taste receptor type 2 member 46 (Homo sapiens); test: Agonist activity at human TAS2R46 expressed in human BEAS2B cells assessed as increase in cytosolic calcium level at 1 mM in presence of […] antagonist 3HDC by Fluo-2-AM dye based fluorescence assay; format: functional, cell-based
[14] = biological target: T1, Taste receptor type 2 member 46 (Homo sapiens); test: Agonist activity at human TAS2R46 expressed in human BEAS2B cells assessed as antiinflammatory activity by measuring reduction in PMA-induced IL-1beta gene expression at 10 uM incubated for 18 hrs by qRT-PCR analysis; format: cell-based
[15] = biological target: T1, Taste receptor type 2 member 46 (Homo sapiens); test: Agonist activity at human TAS2R46 expressed in human BEAS2B cells assessed as effect on cytosolic calcium level at microM concentration by Fluo-2-AM dye based fluorescence assay; format: functional, cell-based
[16] = biological target: T1, Taste receptor type 2 member 46 (Homo sapiens); test: Agonist activity at human TAS2R46 expressed in PMA-induced human BEAS2B cells assessed as antiinflammatory activity by measuring increase in IL-10 gene expression at 10 uM incubated for 18 hrs by qRT-PCR analysis; format: cell-based
[17] = biological target: T1, Taste receptor type 2 member 46 (Homo sapiens); test: (§2) Agonist activity at human TAS2R46 expressed in human BEAS2B cells assessed as antioxidant activity by measuring reduction in PMA-induced superoxide anion generation at 10 uM preincubated for 1 hr followed by PMA addition and measured after 30 mins by cytochrome C reduction assay; format: cell-based
[18] = biological target: T1, Taste receptor type 2 member 46 (Homo sapiens); test: Agonist activity at human TAS2R46 expressed in human BEAS2B cells assessed as antiinflammatory activity by measuring reduction in PMA-induced IL-1beta gene expression at 10 uM incubated for 18 hrs in presence of 1 uM TAS2R46 antagonist 3HDC by qRT-PCR analysis; format: cell-based
[19] = biological target: T1, Taste receptor type 2 member 46 (Homo sapiens); test: Agonist activity at human TAS2R46 expressed in human BEAS2B cells assessed as antiinflammatory activity by measuring reduction in PMA-induced iNOS mRNA level at 10 uM incubated for 18 hrs by qRT-PCR analysis; format: cell-based
[20] = biological target: T1, Taste receptor type 2 member 46 (Homo sapiens); test: Agonist activity at human TAS2R46 expressed in PMA-induced human BEAS2B cells assessed as antiinflammatory activity by measuring increase in IL-4 gene expression at 10 uM incubated for 18 hrs by qRT-PCR analysis; format: cell-based
BEAS-2B [21] = test: Effect on basal superoxide anion production in human BEAS2B cells expressing human TAS2R46 at 10 uM after 1 hr by cytochrome C reduction assay; format: ADME, cell-based
[22] = biological target: T1, Taste receptor type 2 member 46 (Homo sapiens); test: as §2, with “mins in presence of 1 uM TAS2R46 antagonist 3HDC” for “mins”; format: cell-based
[23] = biological target: T1, Taste receptor type 2 member 46 (Homo sapiens); test: Agonist activity at human TAS2R46 expressed in human BEAS2B cells assessed as antiinflammatory activity by measuring reduction in PMA-induced MUC5AC gene expression at 1 to 10 uM incubated for 18 hrs by qRT-PCR analysis; format: cell-based
[24] = biological target: T1, Taste receptor type 2 member 46 (Homo sapiens); test: Agonist activity at human TAS2R46 expressed in human BEAS2B cells assessed as antiinflammatory activity by measuring reduction in PMA-induced iNOS protein level at 10 uM incubated for 18 hrs by TRITC-phalloidin/DAPI staining based analysis; format: cell-based
[25] = biological target: T1, Taste receptor type 2 member 46 (Homo sapiens); test: Agonist activity at human TAS2R46 expressed in PMA-induced human BEAS2B cells assessed as antiinflammatory activity by measuring increase in IL-10 gene expression at 1 uM incubated for 18 hrs in presence of 1 uM TAS2R46 antagonist 3HDC by qRT-PCR analysis; format: cell-based
[26] = biological target: T1, Taste receptor type 2 member 46 (Homo sapiens); test: Agonist activity at human TAS2R46 expressed in PMA-induced human BEAS2B cells assessed as antiinflammatory activity by measuring increase in IL-4 gene expression at 1 uM incubated for 18 hrs in presence of 1 uM TAS2R46 antagonist 3HDC by qRT-PCR analysis; format: cell-based

| Activity [1] | Activity [2] | Activity [3] | Activity [4] | Activity [5] | Activity [6] | Activity [7] | Activity [8] | Activity [10] | Activity [11] | Activity [12] | Activity [13] | SMILES | Activity (BEAS-2B [9]) | other results |
| --- | --- | --- | --- | --- | --- | --- | --- | --- | --- | --- | --- | --- | --- | --- |
| Active | Active | inactive | Active | Active | Active | Active | Active | inactive | inactive | inactive |  | CC1=C2C=C([C@H](C)C(=O)OCCc3ccccc3)CC[C@](C)(O)[C@@H]2[C@H]2[C@@H]3CC4(C)O[C@@]5(C)CC[C@H]6[C@H](C)C(=O)O[C@@H]6C4([C@@H]35)[C@@H]12 | Non-Toxic |  |
| Active | inactive | inactive | Active | Active | Active | Active | Active | Active | inactive | inactive | Active | CC1=C2C=C(C(C)NC(=O)N=[N+]=[N-])CC[C@](C)(O)[C@@H]2[C@H]2[C@@H]3CC4(C)O[C@@]5(C)CC[C@H]6[C@H](C)C(=O)O[C@@H]6C4([C@@H]35)[C@@H]12 (stereo not given in full) | Non-Toxic |  |
| Active |  | inactive | Active | inactive | Active |  | Active | inactive | inactive | inactive |  | CC1=C[C@@H]2[C@H]3[C@H](C(C)=C4[C@H]5OC(=O)[C@@H](C)[C@@H]5CC[C@](C)(O)[C@@H]43)[C@@]13[C@@H]2[C@@](C)(O)CC[C@H]1[C@H](C)C(=O)O[C@@H]13 | Non-Toxic | Activity [14]: Active; Activity [15]: inactive; Activity [16]: inactive; Activity [17]: Active; Activity [18]: inactive; Activity [19]: Active; Activity [20]: inactive; Activity (BEAS-2B [21]): Non-Toxic; Activity [22]: inactive; Activity [23]: Active; Activity [24]: Active |
| Active | Active | Active | Active | Active | Active | Active | Active |  | inactive | Active | inactive | COC(=O)[C@@H](C)C1=CC2=C(C)[C@H]3[C@H]([C@@H]4CC5(C)O[C@@]6(C)CC[C@H]7[C@H](C)C(=O)O[C@@H]7C35[C@@H]46)[C@H]2[C@@](C)(O)CC1 | Non-Toxic | Activity [25]: inactive; Activity [26]: inactive |
